From patent US8986689B2, “Compositions and methods for brain delivery of analgesic peptides” (National Research Council of Canada, priority 2010, dated 2015)
Non-standard residues stand in square brackets, D forms with d. No end group written: not given here.

Tests used:
male Wistar rats = assay: Paw flick assay (Hargreaves method, CFA chronic inflammatory pain); assay type: in vivo, rat; conditions: for Analgesic effect after intravenous injection: tail vein, three injections at 0, 1 and 2 h, Dalargin-cys 0.34 mg/kg, FC5 and EG2-Dalargin 7 mg/kg
Experimental: (§1) Chronic inflammatory pain was induced in 4-6 week old male Wistar rats, by a intra-plantar (i.pl.) injection (100 μl with a 30-gauge needle) of complete Freund's adjuvant in sterile water in a ratio of 1:1 in the right hind paw under brief isoflurane anesthesia (3%). Three days after CFA injection the putative antinociceptive effect of different compounds was quantified by measuring latencies of withdrawal of both hind limb paws (ipsilateral and contralateral to CFA injection) in response to radiant heat using digitalized plantar Analgesia Meter for paw stimulation (IITC Model #336TG Life Science, Inc.). A rapid paw withdrawal on the side of CFA injection (compared to the contralateral non-injected paw) was indicative of inflammatory pain. During the training period (before experiments), the light-intensity lamp was adjusted to elicit baseline paw withdrawal latencies between 17 to 20 s (in rats). […] Results were analyzed as temporal courses of paw withdrawal latency (sec) versus time (min or hrs) and expressed as % of maximum possible effect (% MPE) as described in Example 5. A subcutaneous injection of morphine 10 mg/kg served as a positive control.
For intra-cerebroventricular injections in rats, a longitudinal incision was made in the scalp to identify the bregma; then animals received a unilateral 5 μl intra-cerebroventricular injection of either FC5-Dalargin or Dalargin alone approximately 0.8 mm anterioposterior (AP) level of bregma, 1.5 mm with respect to the midline and 3.5 mm ventral from the skull surface. Injections were made using a Hamilton syringe equipped with a 25-gauge needle. Injection depth was controlled by a plug on the needle to prevent more than 3.5 mm penetration beyond the skull surface.
In contrast, FC5-Dalargin induced cumulative analgesia after each i.v. dosing, reaching 100% MPE 45 min-1 hour after the third injection and gradually ‘washing-out’ over a subsequent three hours (FIG. 12, closed triangles), similar to what was observed after intra-cerebroventricular injections of Dalargin-cys and FC5-Dalargin (FIGS. 10 and 11). If Fc5-Dalargin injection was given 4th time at 3 h (FIG. 12, open polygons), the ‘wash-out’ (i.e., disappearance of analgesic effect) was somewhat extended. […] When Dalargin is functionalized with the blood-brain barrier ‘carrier’ single domain antibody, FC5, Dalargin becomes efficacious in inducing analgesia in chronic pain because FC5 enables its delivery across the blood brain barrier to the sites of its pharmacological action, central opioid receptors.
as §1, with “5-7 weeks” for “4-6 week”, “5.” for “5. A subcutaneous injection of morphine 10 mg/kg served as a positive control.”
Rats received 5 μl intra-cerebroventricular injections of NPY (1 μg) as described in Example 6.
NPY was then injected intravenously in the tail vein in two injections, each containing 2.02 mg/kg of NPY, 1 h apart from each other as described in Example 6. […]

male CD-1 mice = assay: Tail flick assay (acute pain); assay type: in vivo, mouse; conditions: for Analgesic effect after intra-cerebroventricular injection: 15 min and 30 min after injection
opioid receptors = opioid receptors (Rattus norvegicus, UniProt P33535); assay: Opioid receptor binding competition assay against 3H-DAMGO in isolated rat brain membranes; conditions: 30 nM 3H-DAMGO, capillary-depleted rat brain membranes
Experimental: The homogenate was centrifuged at 5800×g (10,000 rpm; Beckman L8-70 Ultracentrifuge, Rotor: SW 40) for 20 min at 4 degrees. The upper parenchyma layer was then collected and centrifuged under the same conditions. The upper parenchyma layer was again collected, and 1 Volume of 50 mM Tris-buffer pH 7.4 containing [2×] of protease inhibitor was added to the collected parenchyma. The mixture was homogenized using a motorized pestle. The homogenate was centrifuged at 46,000×g for 15 minutes at 4° C. The supernatant was removed and the pellet re-suspended in 1 Volume Tris-buffer pH 7.4 containing [2×] of protease inhibitor. The re-suspended pellet was incubated at 37° C. for 15 minutes with agitation in a 50 ml conical tube to dissociate endogenous opioids from receptors. After incubation, the homogenate was centrifuged at 46,000×g for 15 minutes at 4° C. The supernatant was again removed and the pellet re-suspended in 1 to 1.5 Volume Tris-buffer pH 7.4 containing [1×] of protease inhibitor. The membrane preparation was aliquoted into 1.5 ml tubes in 1 ml samples and stored at −80° C.
Opioid Receptor binding assay used a μ opioid receptor agonist, ^3H-DAMGO, to bind to opioid receptors present in the rat brain membrane preparation. Displacement studies were done with unlabelled ligands, Dalargin, and Dalargin-FC5. Briefly, diluted reagents were prepared using 50 mM Tris-buffer pH7.4, as follows: • i. […] 500 nM FC5-Dal: 16.67 μl 30 μM FC5-Dal and 1 ml Tris-buffer; • v.
Tris-buffer was added to each well, followed by a range of Dalargin concentrations, followed by ^3H-DAMGO. The reaction mixture was left at RT with gentle orbital shaking for 1.5 hr. A scintillation cocktail was then added and radioactive counts were measured using beta scintillation counter.
Specific activity for ^3H-DAMGO was 56.8 Ci/mmol. Percentage specific bound at each concentration of unlabelled competitor was calculated using the formula: % specific bound=Bound/Total bound*100.

[1] = tested on: Immortalized Adult Rat brain endothelial cells (ARBEC); assay: Transport across in vitro blood brain barrier model; conditions: Cy5.5-labelled, 10 μg/ml added to apical chamber, ARBEC monolayer
Experimental: FC5 and FC5-Dalargin were labelled by covalent conjugation to Cy5.5 N-hydroxysuccinimide (NHS) ester using methods recommended by the manufacturer (GE Healthcare). Cy5.5 NHS was bound to FC5 through a thioether covalent bond.
Immortalized Adult Rat brain endothelial cells (ARBEC) were used as the in vitro blood brain barrier model. ARBEC (80,000 cells/membrane) were seeded on a 0.5% gelatine-coated Falcon tissue culture inserts (pore size-1 μm; surface area 0.83 cm^2) in 1 ml of growth medium. The bottom chamber of the insert assembly contained 2 ml of growth medium supplemented with the fetal human astrocyte-conditioned medium in a 1:1 (v/v) ratio.
Transport studies were performed 7 days post-seeding. Filter inserts were rinsed with transport buffer (PBS containing 5 mM glucose, 5 mM MgCl2, 10 mM HEPES, 0.05% BSA, pH 7.4) and allowed to equilibrate at 37° C. for 30 minutes. Experiments were initiated by adding 10 μg/ml Cy5.5-labelled FC5-Dalargin or Cy5.5-labelled FC5 to the apical chamber. Aliquots (100 μl) were collected from the opposite chamber at various time intervals (5, 15, 30, 60, 120 minutes) and replaced with fresh buffer. The amount of FC5-Dalargin transported across HCEC monolayers was determined by fluorescence in a fluorescence plate reader.

[2] = 0.86 mg/kg of Dalargin, intra-carotid, 30 min after injection
[3] = 1.72 mg/kg of Dalargin, intra-carotid, 30 min after injection

Sequence of opioid receptors (P33535 whole entry): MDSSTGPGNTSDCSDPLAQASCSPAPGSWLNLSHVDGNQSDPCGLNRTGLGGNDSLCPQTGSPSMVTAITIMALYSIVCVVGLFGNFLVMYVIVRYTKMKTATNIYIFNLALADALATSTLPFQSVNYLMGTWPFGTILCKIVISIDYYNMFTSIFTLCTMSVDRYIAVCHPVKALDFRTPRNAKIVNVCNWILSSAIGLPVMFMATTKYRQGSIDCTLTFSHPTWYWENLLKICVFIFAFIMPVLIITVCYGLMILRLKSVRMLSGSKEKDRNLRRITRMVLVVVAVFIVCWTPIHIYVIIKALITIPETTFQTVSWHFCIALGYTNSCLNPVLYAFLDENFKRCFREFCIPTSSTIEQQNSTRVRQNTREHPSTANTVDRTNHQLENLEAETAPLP

FC5-Dalargin: FC5 sdAb conjugated via Sulfo-SMCC cross-linker to Dalargin-cysteamide
% MPE (male Wistar rats; i.v. 7 mg/kg, three injections at 0, 1, 2 h, 45 min-1 hour after the third injection): 100%
Analgesic effect after icv injection (male Wistar rats; icv, 74.4 μg): complete analgesia
Duration of analgesia after icv injection (male Wistar rats; icv, 74.4 μg): 120 min
% MPE (30 min) (male CD-1 mice; [2]): 63%
% MPE (30 min) (male CD-1 mice; 0.86 mg/kg of Dalargin, intra-carotid, 30 min after injection, listed as FC5-Dal): 63%
% MPE (30 min) (male CD-1 mice; [3]): 66%
% MPE (30 min) (male CD-1 mice; 1.72 mg/kg of Dalargin, intra-carotid, 30 min after injection, listed as FC5-Dal): 66%
Maximal analgesia, % of maximum effect (male CD-1 mice; icv, 30 min after injection): 40%
Persisting analgesia, % above basal levels (male CD-1 mice; icv, for up to 90 min): 10-15%
Displacement of 3H-DAMGO (receptor binding competition) (opioid receptors): only slightly less potent than Dalargin
Permeability co-efficients (Pe) [1]: 41.7 nm/s

Dalargin-cysteamide-OH (Y[dA]GFLR; not fully specified (C-terminus))
% of maximal effect (male Wistar rats; icv, 1.08 μg): 75%
% MPE (male Wistar rats; icv, 10.08 μg): 100%
Analgesic effect after intravenous injection (male Wistar rats): did not increase latency of withdrawal of the inflamed paw
Time of return to basal levels after intra-cerebroventricular injection (male CD-1 mice; icv): 60 min
Analgesic effect after intra-cerebroventricular injection (male CD-1 mice; icv): reaching maximal latency of response
Displacement of 3H-DAMGO (receptor binding competition) (opioid receptors): only slightly less potent than Dalargin

Tyr-[D-Ala]-Gly-Phe-Leu-Arg (Y[dA]GFLR) [Dalargin]
% MPE (30 min) (male CD-1 mice; [2]): 19%
% MPE (30 min) (male CD-1 mice; [3]): 17%
Time of return to basal levels after intra-cerebroventricular injection (male CD-1 mice; icv): 60 min
Analgesic effect after intra-cerebroventricular injection (male CD-1 mice; icv): reaching maximal latency of response
Analgesic effect after intra-carotid injection (male CD-1 mice; intra-carotid, 0.86 and 1.72 mg/kg): No analgesic effect

CN1CC[C@]23c4c5ccc(O)c4O[C@H]2[C@@H](O)C=C[C@H]3[C@H]1C5 [Morphine, morphine]
Effect on CFA-injected paw withdrawal latency (male Wistar rats; 10 mg/kg subcutaneous, positive control): prompt increase in CFA-injected paw withdrawal latency to values of the contralateral, non-inflamed paw
Duration of the increase in paw withdrawal latency (male Wistar rats; 10 mg/kg subcutaneous, then slowly diminishing over 3 hours): 60 min
% of the maximal analgesic effect (observed with 10 mg/kg morphine) (male CD-1 mice; 3 mg/kg s.c.): approximately 50%
% MPE (30 min) (male CD-1 mice; 3 mg/kg sc, 30 min after injection): 56%
Tail flick latency (male CD-1 mice; 10 mg/kg morphine s.c., 30 min after injection, cut-off 10 sec): 10 s
% MPE (30 min) (male CD-1 mice; 10 mg/kg sc, 30 min after injection): 100%

B1: FC5: blood-brain barrier-transmigrating single domain antibody, SEQ ID NO:4, expressed with His5 and c-myc tags (protein)
VHH: EVQLQASGGGLVQAGGSLRLSCAASGFKITHYTMGWFRQAPGKEREFVSRITWGGDNTFYSNSVKGRFTISRDNAKNTVYLQMNSLKPEDTADYYCAAGSTSTATPLRVDYWGKGTQVTVSS
modifications: His5 and c-myc tags; FC5 sdAb
Analgesic effect after intravenous injection (male Wistar rats): Neither FC5 alone nor EG2-Dalargin construct induced any analgesic effect
Displacement of 3H-DAMGO (receptor binding competition) (opioid receptors): did not displace
Permeability co-efficients (Pe) [1]: 32.5 nm/s
